Where two headings read alike, the source gives them in different places. Starred links: 1 amine or outer side, 2 acyl side, 3 side chain; linkers in the order of their positions; H or OH if unused. Non-standard residues stand in square brackets, D forms with d. Residues, ends and D or L forms follow the SMILES beside them. Groups on a side chain read outwards from the residue. *: point of attachment. C20 diacid = O=C(O)CCCCCCCCCCCCCCCCCCC(=O)*; C18 diacid = O=C(O)CCCCCCCCCCCCCCCCC(=O)*; γGlu = O=C(O)[C@H](CCC(=O)[*:2])N[*:1]; Palmitoyl = CCCCCCCCCCCCCCCC(=O)*; NMeI = CC[C@H](C)[C@H](NC)C(=O)O; AEEA = NCCOCCOCC(=O)O
Target: T1, human CRHR2b (Homo sapiens, UniProt Q13324)
T1 construct: expressed in transfected cells; host or cells: Chinese Hamster Ovary (CHO) cells, transient transfection
T1 sequence (Q13324 1-438 isoform Q13324-2): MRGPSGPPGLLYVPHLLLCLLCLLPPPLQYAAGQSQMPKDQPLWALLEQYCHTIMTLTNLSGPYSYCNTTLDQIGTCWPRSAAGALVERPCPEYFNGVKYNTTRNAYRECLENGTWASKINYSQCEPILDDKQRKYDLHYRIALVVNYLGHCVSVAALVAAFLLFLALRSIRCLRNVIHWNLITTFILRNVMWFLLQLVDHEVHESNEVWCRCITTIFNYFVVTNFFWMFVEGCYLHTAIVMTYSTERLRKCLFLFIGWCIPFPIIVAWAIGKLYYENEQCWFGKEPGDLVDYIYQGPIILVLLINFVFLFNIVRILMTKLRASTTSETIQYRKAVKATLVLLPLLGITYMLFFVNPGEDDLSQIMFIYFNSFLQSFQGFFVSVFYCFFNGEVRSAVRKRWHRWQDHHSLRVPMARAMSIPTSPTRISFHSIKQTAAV
Assay: human CRHR2b cell-based cAMP assay
Settings: cAMP assay, read-out: hCRHR2b Average EC50
Protocol: CRHR agonistic activity is measured in a cell-based cAMP assay. Serial dilutions of the test peptides are made in assay buffer containing Hank's Balanced Salt Solution (HBSS, without phenol red) supplemented with 20 mM HEPES and 0.05% lactalbumin enzymatic hydrolysate (LAH) (“assay buffer”). […] A one to three dilution of the test peptides is used in both assays. Receptor over-expressing Chinese Hamster Ovary (CHO) cell line is used for the human CRHR2b assay. […] AF011406.1). Forty-eight hours after the transfection, the cells are centrifuged to remove the culture media and resuspended in fetal bovine serum containing 5% DMSO. They are cryofrozen and stored in vials in liquid nitrogen (20×10^6 cells/ml/vial). On the day of the assay, cells are thawed and resuspended in cold 30 ml culture media supplemented with 20 mM HEPES. The cells are then centrifuged to remove the media and washed once with HBSS supplemented with 20 mM HEPES. Finally, following the last centrifugation, the cells are resuspended in assay buffer. Thirty-thousand cells are used in the human CRHR2b assay for each treatment. The cells are dispensed into Costar 96-well black polystyrene half area EIA/RIA plates (Corning Incorporated, Corning, N.Y.) followed by the addition of the diluted peptides, each at a volume of 20 μL. The agonist induced cAMP levels are detected using a HTRF cAMP Dynamic 2 kit (CisBio, Bedford, Mass.). After incubation at 37° C. for 30 min, the assay is stopped by cell lysis via the addition of 20 μL of d2-labeled cAMP and followed by 20 μL of cryptate-labeled anti-cAMP antibody, as described by the manufacturer. Cellular cAMP (as a result of agonist stimulation) competes with the d2-labeled cAMP for binding to the antibody. HTRF detection is performed on an Envision plate reader (Perkin Elmer Life and Analytical Sciences, Waltham, Mass.) by measuring ratiometric emission at 620 and 665 nm after excitation at 320 nm. The data are converted to picomoles of cAMP using a standard curve obtained from the same assay performed with varying concentrations of unlabeled cAMP. […] The data are analyzed using a Curve Fitting Tool to calculate ED50. Numeric values shown below in Table 1 represent the mean of multiple runs (number of runs shown in parentheses) following the mean value±SEM.

[1] = Table 26, compounds of Example 9

Row | SMILES | EC50 [1] [nM] | EC50 (CHO cells transfected with human CRHR2b, mean ± SEM of runs) [nM]
1 | CCCCCCCCCCCCCCCC(=O)N[C@@H](CCC(=O)NCCCC[C@H](NC(=O)[C@H](CCC(=O)O)NC(=O)[C@H](CCC(N)=O)NC(=O)[C@H](CCC(=O)O)NC(=O)[C@H](CC(C)C)NC(=O)[C@H](CC(C)C)NC(=O)[C@@H](NC(=O)[C@H](CCC(N)=O)NC(=O)[C@H](CC(C)C)NC(=O)[C@H](CC(C)C)NC(=O)CNC(=O)[C@@H](NC(=O)[C@@H]1CCCN1C(=O)[C@@H](NC(=O)[C@H](CC(=O)O)NC(=O)[C@H](CC(C)C)NC(=O)[C@H](CO)NC(=O)[C@H](CC(C)C)NC(=O)[C@@H](NC(=O)[C@@H](N)[C@@H](C)CC)C(C)C)C(C)C)[C@@H](C)CC)[C@@H](C)CC)C(=O)N[C@@H](CCC(N)=O)C(=O)N[C@@H](CCC(=O)O)C(=O)N[C@@H](CCCCN)C(=O)N[C@@H](CCC(=O)O)C(=O)N[C@@H](CCCCN)C(=O)N[C@@H](CCC(N)=O)C(=O)N[C@@H](CCC(N)=O)C(=O)N[C@@H](C)C(=O)N[C@H](C(=O)N[C@H](C(=O)N[C@@H](CC(N)=O)C(=O)N[C@@H](C)C(=O)N[C@@H](CCCNC(=N)N)C(=O)N[C@H](C(=O)N[C@@H](CC(C)C)C(=O)N[C@@H](C)C(=O)N[C@@H](CCCNC(=N)N)C(=O)N[C@H](C(N)=O)C(C)C)[C@@H](C)CC)[C@@H](C)O)[C@@H](C)O)C(=O)O [Compound 25] (H-IVLSLDVPIGLLQILLEQEK([γGlu-Palmitoyl])QEKEKQQATTNARILARV-NH2) | 63.5 | –
2 | CC[C@H](C)[C@H](N)C(=O)N[C@H](C(=O)N[C@@H](CC(C)C)C(=O)N[C@@H](CO)C(=O)N[C@@H](CC(C)C)C(=O)N[C@@H](CC(=O)O)C(=O)N[C@H](C(=O)N1CCC[C@H]1C(=O)N[C@H](C(=O)NCC(=O)N[C@@H](CC(C)C)C(=O)N[C@@H](CC(C)C)C(=O)N[C@@H](CCC(N)=O)C(=O)N[C@H](C(=O)N[C@@H](CCCCNC(=O)COCCOCCNC(=O)COCCOCCNC(=O)CC[C@H](NC(=O)CC[C@H](NC(=O)CCCCCCCCCCCCCCCCC(=O)O)C(=O)O)C(=O)O)C(=O)N[C@@H](CC(C)C)C(=O)N[C@@H](CCC(=O)O)C(=O)N[C@@H](CCC(N)=O)C(=O)N[C@@H](CCC(=O)O)C(=O)N[C@@H](CCCCN)C(=O)N[C@@H](CCC(N)=O)C(=O)N[C@@H](CCC(=O)O)C(=O)N[C@@H](CCCCN)C(=O)N[C@@H](CCC(=O)O)C(=O)N[C@@H](CCCCN)C(=O)N[C@@H](CCC(N)=O)C(=O)N[C@@H](CCC(N)=O)C(=O)N[C@@H](C)C(=O)N[C@H](C(=O)N[C@H](C(=O)N[C@@H](CC(N)=O)C(=O)N[C@@H](C)C(=O)N[C@@H](CCC(N)=O)C(=O)N[C@H](C(=O)N[C@@H](CC(C)C)C(=O)N[C@@H](C)C(=O)N[C@@H](Cc1c[nH]cn1)C(=O)N[C@H](C(N)=O)C(C)C)[C@@H](C)CC)[C@@H](C)O)[C@@H](C)O)[C@@H](C)CC)[C@@H](C)CC)C(C)C)C(C)C [Compound 41] (H-IVLSLDVPIGLLQIK([AEEA-AEEA-γGlu-γGlu-C18 diacid])LEQEKQEKEKQQATTNAQILAHV-NH2) | 207 | –
3 | CCCCCCCCCCCCCCCC(=O)N[C@@H](CCC(=O)NCCCC[C@H](NC(=O)[C@H](CCCCN)NC(=O)[C@H](CCC(=O)O)NC(=O)[C@H](CCC(N)=O)NC(=O)[C@H](CCCCN)NC(=O)[C@H](CCC(=O)O)NC(=O)[C@H](CCC(N)=O)NC(=O)[C@H](CCC(=O)O)NC(=O)[C@H](CC(C)C)NC(=O)[C@H](CC(C)C)NC(=O)[C@@H](NC(=O)[C@H](CCC(N)=O)NC(=O)[C@H](CC(C)C)NC(=O)[C@H](CC(C)C)NC(=O)CNC(=O)[C@@H](NC(=O)[C@@H]1CCCN1C(=O)[C@@H](NC(=O)[C@H](CC(=O)O)NC(=O)[C@H](CC(C)C)NC(=O)[C@H](CO)NC(=O)[C@H](CC(C)C)NC(=O)[C@@H](NC(=O)[C@@H](N)[C@@H](C)CC)C(C)C)C(C)C)[C@@H](C)CC)[C@@H](C)CC)C(=O)N[C@@H](CCCCN)C(=O)N[C@@H](CCC(N)=O)C(=O)N[C@@H](CCC(N)=O)C(=O)N[C@@H](C)C(=O)N[C@H](C(=O)N[C@H](C(=O)N[C@@H](CC(N)=O)C(=O)N[C@@H](C)C(=O)N[C@@H](CCCNC(=N)N)C(=O)N[C@H](C(=O)N[C@@H](CC(C)C)C(=O)N[C@@H](C)C(=O)N[C@@H](CCCNC(=N)N)C(=O)N[C@H](C(N)=O)C(C)C)[C@@H](C)CC)[C@@H](C)O)[C@@H](C)O)C(=O)O [Compound 29] (H-IVLSLDVPIGLLQILLEQEKQEKK([γGlu-Palmitoyl])KQQATTNARILARV-NH2) | 64.7 | –

Next, values leading:

Row | EC50 [1] [nM] | EC50 (CHO cells transfected with human CRHR2b, mean ± SEM of runs) [nM] | SMILES
4 | – | 1.01 ± 0.23 | CC[C@H](C)[C@H](NC)C(=O)N[C@H](C(=O)N[C@H](C(=O)N[C@@H](CO)C(=O)N[C@@H](CC(C)C)C(=O)N[C@@H](CC(=O)O)C(=O)N[C@H](C(=O)N1CCC[C@H]1C(=O)N[C@H](C(=O)NCC(=O)N[C@@H](CC(C)C)C(=O)N[C@@H](CC(C)C)C(=O)N[C@@H](CCC(N)=O)C(=O)N[C@H](C(=O)N[C@@H](CC(C)C)C(=O)N[C@@H](CC(C)C)C(=O)N[C@@H](CCC(=O)O)C(=O)N[C@@H](CCC(N)=O)C(=O)N[C@@H](CCC(=O)O)C(=O)N[C@@H](CCCCN)C(=O)N[C@@H](CCC(N)=O)C(=O)N[C@@H](CCC(=O)O)C(=O)N[C@@H](CCCCN)C(=O)N[C@@H](CCC(=O)O)C(=O)N[C@@H](CCCCN)C(=O)N[C@@H](CCC(N)=O)C(=O)N[C@@H](CCC(N)=O)C(=O)N[C@@H](C)C(=O)N[C@@H](CCCCNC(=O)COCCOCCNC(=O)COCCOCCNC(=O)CC[C@H](NC(=O)CC[C@H](NC(=O)CCCCCCCCCCCCCCCCCCC(=O)O)C(=O)O)C(=O)O)C(=O)N[C@H](C(=O)N[C@@H](CC(N)=O)C(=O)N[C@@H](C)C(=O)N[C@@H](CCC(=O)O)C(=O)N[C@H](C(=O)N[C@@H](CC(C)C)C(=O)N[C@@H](C)C(=O)N[C@@H](CCC(N)=O)C(=O)N[C@H](C(N)=O)C(C)C)[C@@H](C)CC)[C@@H](C)O)[C@@H](C)CC)[C@@H](C)CC)C(C)C)[C@@H](C)O)C(C)C [Example 5] (H-[NMeI]VTSLDVPIGLLQILLEQEKQEKEKQQAK([AEEA-AEEA-γGlu-γGlu-C20 diacid])TNAEILAQV-NH2)
5 | 4.5 | – | CC[C@H](C)[C@H](NC)C(=O)N[C@H](C(=O)N[C@@H](CC(C)C)C(=O)N[C@@H](CO)C(=O)N[C@@H](CC(C)C)C(=O)N[C@@H](CC(=O)O)C(=O)N[C@H](C(=O)N1CCC[C@H]1C(=O)N[C@H](C(=O)NCC(=O)N[C@@H](CC(C)C)C(=O)N[C@@H](CC(C)C)C(=O)N[C@@H](CCC(N)=O)C(=O)N[C@H](C(=O)N[C@@H](CC(C)C)C(=O)N[C@@H](CC(C)C)C(=O)N[C@@H](CCC(=O)O)C(=O)N[C@@H](CCC(N)=O)C(=O)N[C@@H](CCC(=O)O)C(=O)N[C@@H](CCCCN)C(=O)N[C@@H](CCC(N)=O)C(=O)N[C@@H](CCC(=O)O)C(=O)N[C@@H](CCCCN)C(=O)N[C@@H](CCC(=O)O)C(=O)N[C@@H](CCCCN)C(=O)N[C@@H](CCC(N)=O)C(=O)N[C@@H](CCC(N)=O)C(=O)N[C@@H](C)C(=O)N[C@@H](CCCCNC(=O)CC[C@H](NC(=O)CC[C@H](NC(=O)COCCOCCNC(=O)COCCOCCNC(=O)CC[C@H](NC(=O)CC[C@H](NC(=O)CCCCCCCCCCCCCCCCCCC(=O)O)C(=O)O)C(=O)O)C(=O)O)C(=O)O)C(=O)N[C@H](C(=O)N[C@@H](CC(N)=O)C(=O)N[C@@H](C)C(=O)N[C@@H](CCC(N)=O)C(=O)N[C@H](C(=O)N[C@@H](CC(C)C)C(=O)N[C@@H](C)C(=O)N[C@@H](CCC(N)=O)C(=O)N[C@H](C(N)=O)C(C)C)[C@@H](C)CC)[C@@H](C)O)[C@@H](C)CC)[C@@H](C)CC)C(C)C)C(C)C [Compound 62] (H-[NMeI]VLSLDVPIGLLQILLEQEKQEKEKQQAK([γGlu-γGlu-AEEA-AEEA-γGlu-γGlu-C20 diacid])TNAQILAQV-NH2)

From patent US10894817B2, “Fatty acid modified urocortin-2 analogs for the treatment of diabetes and chronic kidney disease” (priority 2016, dated 2021)
